Experimental findings from patent US20220265657A1, “ADMINISTRATION METHOD AND DOSAGE REGIMEN FOR TREATMENT OF NEURODEGENERATIVE DISEASES USING TRAMETINIB AND MARKERS” (GENUV INC., priority 2019, published 2022) are described below.

In the assay the test system is MEK1/2. Briefly: Western blot of pERKs and ERKs in whole brain lysates of normal mice. It is filed as in vivo. The following applies: 0.1 mg/kg/day oral. How it is done:
Trametinib treatment: Trametinib (Medchemexpress, Monmouth Junction, N.J.) was micronized and suspended in the vehicle containing 5% mannitol, 1.5% hydroxypropyl methylcellulose and 0.2% sodium lauryl sulfate. For pharmacokinetic analysis, 0.05, 0.2 and 0.8 mg/kg of trametinib were orally administered to 7-week-old normal mice (ICR, n=5 per group) as a single administration. […] For studies on the change in pERK expression in normal mice and whole cell RNA sequencing study, 0.1 mg/kg/day of trametinib (in 4% DMSO+96% corn oil) was orally administered to 6-week old C57BL/6 mice (n=3 per group). Mice were sacrificed after 1, 2, 3, or 4 weeks of administration. 5XFAD mice (male, n=7˜10 per group) were divided into vehicle and trametinib treated groups. 12-month old mice received vehicle or 0.1 mg/kg of trametinib for 1 month by oral gavage once a day (These mice are referred to as “13-month old 5XFAD mice” in the Examples). […] Blood was obtained after completion of treatment.
Lysates were centrifuged at 13,000 rpm for 20 min at 4° C., and the protein content in the supernatant was determined using the Bradford assay (Bio-rad, Hercules, Calif.). For subcellular fractionation, cells were lysed with lysis buffer (250 mM Sucrose, 20 mM HEPES, pH 7.4, 10 mM KCl, 1.5 mM MgCl2, 1 mM EGTA, 1 mM EDTA, 1 mM DTT) containing protease inhibitor for 30 min on ice, followed by centrifugation at 720 g for 5 min at 4° C. Supernatants were centrifuged at 15,000 rpm for 10 min at 4° C., and the resulting supernatant was used as the cytosol fraction. After centrifugation at 720 g for 5 min, pellets were washed with lysis buffer and dissolved in nuclear lysis buffer (50 mM Tris HCl, pH 8.0, 150 mM NaCl, 1% NP40, 0.5% sodium deoxycholate, 0.1% SDS, 10% glycerol) as the nuclear fraction. Protein from each sample was subjected to 8%˜15% SDS-PAGE, and the resolved proteins were transferred to nitrocellulose or polyvinylidene fluoride membrane. The membranes were blocked with 5% nonfat milk powder in Tris-buffered saline/Tween 20 (TBST) for 1 h at room temperature, then incubated with anti-phospho-ERK (Cell signaling), anti-ERK (Cell signaling), anti-LAMP1 (Abcam), anti-LC3 (Cell signaling), anti-cathepsin B (Cell signaling), anti-p62 (Cell signaling), anti-p62 (5114, Cell signaling), anti-phospho-mTOR (5536, Cell signaling), anti-mTOR (2983, Cell signaling), anti-phospho-ULK1 (14202, Cell signaling), anti-ULK1 (8054, Cell signaling), anti-TFEB (852501, Biolegend), and anti-GAPDH (Cell signaling) overnight at 4° C. After washing, membranes were incubated with horseradish peroxidase-conjugated goat anti-rabbit IgG antibody (Thermo) or goat anti-rat IgG antibody (Thermo) for 2 h at room temperature. […] The detected signals were quantified using a LAS-4000 system (Fuji Film, Tokyo, Japan).
A general note: Immunoblotting shows a protein as a band on a membrane.

As to `CC(=O)Nc1cccc(-n2c(=O)n(C3CC3)c(=O)c3c(Nc4ccc(I)cc4F)n(C)c(=O)c(C)c32)c1` [trametinib], the “decrease of p-ERKs/ERKs ratio compared to vehicle treated group” value reads like this: (1 week administration) 22.5%; (2 week administration) 33.7%; (3 week administration) 50%; (4 week administration) 45.6%.
